Experimental data as given in patent US20100248365A1, “GANGLIOSIDE BIOSYNTHESIS MODULATORS” (ZACHARON PHARMACEUTICALS, INC., priority 2009, published 2010).

Assays:
Type in all cases: cell-based
[1] = test system: primary human fibroblasts from Sandhoff patients; assay: GM2 storage in gangliosidosis fibroblasts (Sandhoff), GSL analysis by HPLC; settings: 30 uM, 13 days of treatment
Description: (§1) Human gangliosidosis fibroblast cells are obtained e.g., from Coriell Institute for Medical Research (http://ccr.coriell.org). The primary cells are cultured in minimum essential medium (MEM) with 15% fetal bovine serum (FBS) as instructed by the supplier.
(§2) The fibroblast cells are cultured in 6 well plates at a density of 5.0E05/well in MEM, 15% FBS. The cells are treated with compounds at 30 uM on the next day of culture. The non-selective glycolipid inhibitors PDMP and DGNJ, which inhibit glucosylceramide synthase, are used as control. All the treatments are performed in triplicate. The medium is changed every 5 days with fresh compounds added. After 13 days of treatment with compounds, the cells are harvested for GSL analysis. The conditioned medium is removed, the monolayer is washed with PBS and detached with 5 mM EDTA in PBS. An aliquot of the cell suspension is taken for cell viability count using Viacount.
The cells are spun down and the cell pellets are resuspended in water for GSL extraction. The cells are homogenized using a homogenizer at 6500 rpm for 30 seconds twice. Gangliosides are extracted from homogenates by using chloroform:methanol:water (4:8:3) followed by partitioning. The ganglioside containing upper phase is taken and dried down in a SpeedVac.
Purified total GSLs are subjected to endo-glucoceramidase (EGCase II, Sigma) treatment to release free glycans. ˜10 ug protein equivalent GSL is digested with 1 mU EGCaseII in 15 ul incubation buffer containing 50 mM sodium acetate, pH 5.5 and 0.4% TX100. Digestion is performed at 37° C. overnight. Released free glycans are tagged with anthranilic Acid (2-AA, Sigma). A labeling mix is prepared freshly in 4% sodium acetate (NaAc.3H2O) and 2% boric acid/methanol(w/v) by adding 45 mg NaBH3CN first and then adding 30 mg 2AA in a 1 ml solution. 40 ul of this labeling mix is added directly into digestion mix. The labeling is carried out at 80° C. for 45˜60 min. Free labeling reagents are removed by passing the reaction mix through a Discovery DPA-6S (Sigma) column. The DPA-6S column (50 mg) is pre-equilibrated twice with 1 ml acetonitrile (ACN). The reaction mixture is cooled down, 1 ml of 97% ACN is added, and the sample is loaded onto the column. The column is washed with four times with 1 ml of 99% ACN and once with 0.5 ml of 97% ACN. 2AA-glycans are eluted in two time 600 ul water. The eluates are dried down in a SpeedVac and subjected to HPLC analysis.
(§3) Purified 2-AA-labeled oligosaccharides are analyzed by HPLC an method as described by Neville et al. (Anal. Biochem, 2004, 331:275-282). 2-AA-oligosaccharides are separated by NP-HPLC using a 5 μm 4.6×250 mm TSK gel-Amide 80 column (Tosoh) on a Waters Alliance 2690 separation module equipped with a Waters 2475 fluorescence detector set at Exλ360 nm and Emλ425 nm. Solvent A is 80% ACN and 20% 100 mM ammonium acetate (AmAc), pH 3.85. Solvent B is 60% Milli-Q water, 20% ACN and 20% 100 mM AmAc, pH 3.85. The gradient profile is listed below. Glucose unites are determined based on a 2-AA-labeled glucose ladder (Ludger, UK).

[2] = test system: NCI-H82 cells; assay: Ganglioside profiling of compound-treated NCI-H82 cells (GSL extraction, 2AA labeling, NP-HPLC); settings: for cellular inhibition of specific ganglioside biosynthesis: NCI-H82 cells, 25, 12 and 6 uM, 96 hours, HPLC peaks; for preferential reduction effect on gangliosides GM3 and GD3: relative to other ganglioside species
Description: NCI-H82 cells were cultured in 6 well plates and treated with compounds at a concentration of 25, 12 and 6 uM in triplicates. PDMP (1-Phenyl-2-decanoylamino-3-morpholino-1-propanol, HCl, EMD #513100) at 25, 12, 6 uM and DGNJ (N-(n-Butyl) deoxygalactonojirimycin, EMD #203994) at 50 uM were used as controls. After 96 hours of compounds treatment the cells were harvested for ganglioside profiling. The suspension cells were centrifuged and the pellets washed once with PBS. Cells were resuspended in 1 ml of PBS, 1/100 of cells were taken to check the cell viability (Viacount)) and for glycosphingolipid (GSL) quantitation and normalization. 1/10 of cells were taken for CTB-FACS to check GM1 expression. The remaining cells were subjected to the ganglioside extraction procedure follow the protocol described by R. Schnaar (Methods in Enzymology, 230: 348-370, 1994).
Briefly, the cells were pelleted by centrifugation and resuspended in cold distilled-water. The cell suspension was homogenized with Polytron homogenizer. Glycolipids were extracted with chloroform:methanol:water at 4:8:3 ratio. Glycolipids were partitioned by adding 0.173 volume of water to extracted the supernatant. The upper […] phase (glycolipids) was dried in a vacuum centrifuge (SpeedVac).
Glycans were released from the glycolipids using the enzyme EGCase II (Sigma, Cat #E9030) as described by the manufacture. Released glycans were labeled with 2AA (2-Anthranilic acid, Sigma, Cat #A89804) following the procedures described by D. Neville (Analytical Biochemistry, 331 (2004) 275-282). Non-incorporated 2AA was removed by column chromatography (Discovery DPA-6S). Briefly, the extracted GSLs were digested with EGCase in a 10 ul reaction volume overnight. 40 ul of labeling mix (30 mg/ml 2-AA, 45 mg/ml […] in 4% NaAc and 2% boric acid in methano) were added. The reaction was carried at 80° C. for 45 min. 2AA-labeled glycans were purified by column chromatography (Discovery DPA-6S). The column was preequilibrated with 2×1 ml 97% acetonitrile (ACN) and the sample was loaded by adding 1 ml 97% ACN to the reaction mix. The column was washed 4× with 1 ml 97% ACN and the 2AA-labeled […] were eluted with 2×0.6 ml water. After drying down (SpeedVac), the sample were resuspended and analyzed by normal phase high performance liquid chromatography (NP-HPLC).
Purified 2AA-GSL glycans were separated on NP-HPLC using a 4.6×250 mm TSK Gel-Amide-80 column (Tosoh Bioscience). The chromatography system consisted of a Waters Alliance 2690/5 separation module and an in-line Waters 2475 fluorescence detector set at Exλ360 nm and Emλ425 nm. All chromatography was performed at 30° C. Solvent A was 20% 100 mM ammonium acetate pH3.85, 80% Acetonitrile, solvent B was 20% 100 mM ammonium acetate pH3.85, 20% ACN and 60% Milli-Q water. The gradient was run from 86% A to 54.7% A in 55 min at flow rate 0.8˜1.2 ml/min (Analytical Biochemistry, 331 (2004) 275-282). Chromatography data was processed using Waters Empower software. Glucose units were determined based on a 2AA-labeled glucose oligomer ladder (Ludger). All 2AA-GSL standards were prepared in house and labeled as glucose units.
FIGS. 18-25 illustrate the dose dependent effects on individual gangliosides (individual HPLC peaks) of various compounds as determined according to the methods of Example 5, but with additional and slightly altered concentration levels used for test compound dosing.

[3] = test system: primary human fibroblasts from Tay-Sachs patients; assay: GM2 storage in gangliosidosis fibroblasts (Tay-Sachs), GSL analysis by HPLC; settings: 30 uM, 13 days of treatment
Description: as §1
as §2, with “Viacount. […]” for “Viacount.”
as §3, with “Solvent A is 80% ACN and 20% 100 mM ammonium acetate (AmAc), pH 3.85. Solvent B is 60% Milli-Q water, 20% ACN and 20% 100 mM AmAc, pH 3.85. The gradient profile is listed below.” left out

[4] = NCI-H82 cells, HPLC peak area as % of untreated
[5] = NCI-H82 cells, HPLC peak areas as % of untreated

COc1cccc(-c2nc3c(C(C)(C)C)cc(C(C)(C)C)c(O)c3o2)c1OC [compound 20, 4,6-di-tert-butyl-2-(2,3-dimethoxyphenyl)benzo[d]oxazol-7-ol]
reduction of GM2 storage in primary human fibroblasts from Sandhoff patients [1]: reduction

N#Cc1c(-n2ncnc2-c2ccc(F)cc2)sc2c1CCCCC2 [compound 4, 2-(5-(4-fluorophenyl)-1H-1,2,4-triazol-1-yl)-5,6,7,8-tetrahydro-4H-cyclohepta[b]thiophene-3-carbonitrile]
dose dependent reduction effect on ganglioside GD3 [2, 4]: dose dependent reduction
reduction in B series gangliosides relative to A series gangliosides [2, 5]: reduction

CCCCN1C[C@H](O)[C@@H](O)[C@@H](O)[C@H]1CO [DGNJ, N-(n-Butyl) deoxygalactonojirimycin, reference compound]
reduction of GM2 storage in primary human fibroblasts from Sandhoff patients [1]: reduction

CC(C)(C)c1cc(C(C)(C)C)c2nc(-c3cc(Br)ccc3O)oc2c1O [compound 5, 2-(5-bromo-2-hydroxyphenyl)-4,6-di-tert-butylbenzo[d]oxazol-7-ol]
dose dependent reduction effect on ganglioside GD2 [2, 4]: dose dependent reduction
preferential reduction effect on 2 series gangliosides GM2 and GD2 relative to the 3 series gangliosides GM3 and GD3 [2, 5]: preferential reduction
reduction of GM2 storage in primary human fibroblasts from Sandhoff patients [1]: reduction

COc1cc(/C=C/c2ccc3cccc(OCc4ccccc4)c3n2)cc([N+](=O)[O-])c1OC(C)=O [compound 15, (E)-4-(2-(8-(benzyloxy)quinolin-2-yl)vinyl)-2-methoxy-6-nitrophenyl acetate]
cellular inhibition of specific ganglioside biosynthesis [2]: inhibition

CC(C)CNc1oc(-c2cccs2)nc1C#N [compound 8, 5-(isobutylamino)-2-(thiophen-2-yl)oxazole-4-carbonitrile]
preferential reduction effect on gangliosides GM3 and GD3 ([2]; NCI-H82 cells): preferential reduction
reduction of GM2 storage in primary human fibroblasts from Sandhoff patients [1]: reduction

CC1=C(C(=O)Nc2ccccc2)C(c2ccccc2)C(C#N)=C(SCC(=O)NCc2ccccc2)N1 (stereo not drawn) [compound 7, 6-(2-(benzylamino)-2-oxoethylthio)-5-cyano-2-methyl-N,4-diphenyl-1,4-dihydropyridine-3-carboxamide]
reduction of GM2 storage in primary human fibroblasts from Sandhoff patients [1]: reduction

CSc1ccc(-c2ncnn2-c2sc3c(c2C#N)CCCCC3)cc1 [compound 3, 2-(5-(4-(methylthio)phenyl)-1H-1,2,4-triazol-1-yl)-5,6,7,8-tetrahydro-4H-cyclohepta[b]thiophene-3-carbonitrile]
preferential reduction effect on gangliosides GM3 and GD3 ([2]; NCI-H82 cells): preferential reduction
reduction of GM2 storage in primary human fibroblasts from Sandhoff patients [1]: reduction

COc1ccc(/C(C)=N/Nc2nc3ccccc3nc2C)cc1OC [compound 19, (E)-2-(2-(1-(3,4-dimethoxyphenyl)ethylidene)hydrazinyl)-3-methylquinoxaline]
dose dependent reduction effect on ganglioside GM1 [2, 4]: dose dependent reduction
reduction of GM2 storage in primary human fibroblasts from Sandhoff patients [1]: reduction

CCCCCCCCCC(=O)NC(CN1CCOCC1)C(O)c1ccccc1 (stereo not drawn) [PDMP, 1-Phenyl-2-decanoylamino-3-morpholino-1-propanol, reference compound]
cellular inhibition of specific ganglioside biosynthesis [2]: inhibition
reduction of GM2 storage in primary human fibroblasts from Sandhoff patients [1]: reduction

Cc1ccc(C=NN2CCN(c3ccc(Cl)cc3)CC2)o1 [compound 17, 4-(4-chlorophenyl)-N-((5-methylfuran-2-yl)methylene)piperazin-1-amine]
cellular inhibition of specific ganglioside biosynthesis [2]: inhibition
dose dependent reduction effect on ganglioside GM3 [2, 4]: dose dependent reduction
reduction of GM2 storage in primary human fibroblasts from Sandhoff patients [1]: reduction

CN(C)c1ccc(-c2nc3c(C(C)(C)C)cc(C(C)(C)C)c(O)c3o2)cc1 [compound 2, 4,6-di-tert-butyl-2-(4-(dimethylamino)phenyl)benzo[d]oxazol-7-ol]
cellular inhibition of specific ganglioside biosynthesis [2]: inhibition
dose dependent reduction effect on ganglioside GD1b [2, 4]: dose dependent reduction

Cc1cc(OCC(=O)Nc2ccc(N(C)C)cc2)cc(C)c1Cl [compound 21, 2-(4-chloro-3,5-dimethylphenoxy)-N-(4-(dimethylamino)phenyl)acetamide]
reduction of GM2 storage in primary human fibroblasts from Tay-Sachs patients [3]: reduction

CC(C)(C)C1=CC(=Nc2ccc(Br)cc2)C=C(C(C)(C)C)C1=O [compound 18, 4-(4-bromophenylimino)-2,6-di-tert-butylcyclohexa-2,5-dienone]
dose dependent reduction effect on ganglioside GM2 [2, 4]: dose dependent reduction
